Reference: patent publication US9834571B2, “Compounds for inhibiting cell proliferation in EGFR-driven cancers” (ARIAD Pharmaceuticals, Inc., priority 2012, dated 2017)

How the values were obtained:
[1] = target: human EGFR (native sequence) (Homo sapiens, UniProt P00533); test: Kinase inhibitory activity against human EGFR (native sequence); type: biochemical; conditions: human EGFR native sequence; 10 μM ATP; read-out: IC50 for kinase inhibition, EGFR
Method: (§1) Kinase inhibitory activity of the compounds was measured against human EGFR (native sequence) and against EGFR bearing the L858R mution and the L858R/T790M double mutation (EGFR, L858R, and L858R/T790M, respectively in Table 1). Additional assays can be conducted with EGFR deletion mutants such as delE746-A750 with or without the additional T790M mutation. Assay conditions included 10 pt curves with 3 μM top concentration (singlicates) and 10 μM ATP.

EGFR L858R = EGFR L858R (Homo sapiens, UniProt P00533, L858R); test: Kinase inhibitory activity against EGFR bearing the L858R mutation; type: biochemical; conditions: EGFR L858R; 10 μM ATP; read-out: IC50 for kinase inhibition, EGFR L858R
Method: as §1

EGFR L858R/T790M = EGFR L858R/T790M (Homo sapiens, UniProt P00533, L858R/T790M); test: Kinase inhibitory activity against EGFR bearing the L858R/T790M double mutation; type: biochemical; conditions: EGFR L858R/T790M double mutation; 10 μM ATP; read-out: IC50 for kinase inhibition, EGFR L858R T790M
Method: as §1

[2] = target: T1, BaF3 cells expressing the target EGFR mutations (Homo sapiens, UniProt P00533, T790M, cells depend on it, form not given); test: Antiproliferative activity (MTT) against BaF3 cells expressing the target EGFR mutations; type: cell-based; conditions: BAF3 EGFR DEL T790M PURO POOL cells, read-out: IC50, BAF3 EGFR DEL T790M PURO POOL
T1 construct: IC50, BAF3 EGFR DEL T790M PURO POOL; other: BAF3 EGFR DEL T790M PURO POOL cells, MTT; other: BAF3 EGFR DEL T790M PURO POOL cells; MTT
Method: (§2) We also assessed the antiproliferative activity of compounds of Formula (I) against BaF3 cells expressing the target EGFR mutations or control (i.e., cell lines expressing wildtype EGFR). Assays were conducted using MTT.

[3] = target: T2, BaF3 cells expressing the target EGFR mutations (Homo sapiens, UniProt P00533, T790M/L858R, cells depend on it); test: as above; type: cell-based; conditions: BAF3 EGFR L858R-T790M PURO POOL cells, read-out: IC50, BAF3 EGFR L858R-T790M PURO POOL
T2 construct: IC50, BAF3 EGFR L858R-T790M PURO POOL; other: BAF3 EGFR L858R-T790M PURO POOL cells, MTT; IC50, BAF3 EGFR L858R-T790M PURO POOL; other: BAF3 EGFR L858R-T790M PURO POOL cells; MTT
Method: as §2

[4] = test system: BaF3 cells expressing wildtype EGFR; test: Antiproliferative activity (MTT) against control BaF3 cells expressing wildtype EGFR; type: cell-based; conditions: Mus musculus, BAF3 PARENTAL cells (control)
Method: as §2

T2 sequence (P00533 whole entry T790M/L858R): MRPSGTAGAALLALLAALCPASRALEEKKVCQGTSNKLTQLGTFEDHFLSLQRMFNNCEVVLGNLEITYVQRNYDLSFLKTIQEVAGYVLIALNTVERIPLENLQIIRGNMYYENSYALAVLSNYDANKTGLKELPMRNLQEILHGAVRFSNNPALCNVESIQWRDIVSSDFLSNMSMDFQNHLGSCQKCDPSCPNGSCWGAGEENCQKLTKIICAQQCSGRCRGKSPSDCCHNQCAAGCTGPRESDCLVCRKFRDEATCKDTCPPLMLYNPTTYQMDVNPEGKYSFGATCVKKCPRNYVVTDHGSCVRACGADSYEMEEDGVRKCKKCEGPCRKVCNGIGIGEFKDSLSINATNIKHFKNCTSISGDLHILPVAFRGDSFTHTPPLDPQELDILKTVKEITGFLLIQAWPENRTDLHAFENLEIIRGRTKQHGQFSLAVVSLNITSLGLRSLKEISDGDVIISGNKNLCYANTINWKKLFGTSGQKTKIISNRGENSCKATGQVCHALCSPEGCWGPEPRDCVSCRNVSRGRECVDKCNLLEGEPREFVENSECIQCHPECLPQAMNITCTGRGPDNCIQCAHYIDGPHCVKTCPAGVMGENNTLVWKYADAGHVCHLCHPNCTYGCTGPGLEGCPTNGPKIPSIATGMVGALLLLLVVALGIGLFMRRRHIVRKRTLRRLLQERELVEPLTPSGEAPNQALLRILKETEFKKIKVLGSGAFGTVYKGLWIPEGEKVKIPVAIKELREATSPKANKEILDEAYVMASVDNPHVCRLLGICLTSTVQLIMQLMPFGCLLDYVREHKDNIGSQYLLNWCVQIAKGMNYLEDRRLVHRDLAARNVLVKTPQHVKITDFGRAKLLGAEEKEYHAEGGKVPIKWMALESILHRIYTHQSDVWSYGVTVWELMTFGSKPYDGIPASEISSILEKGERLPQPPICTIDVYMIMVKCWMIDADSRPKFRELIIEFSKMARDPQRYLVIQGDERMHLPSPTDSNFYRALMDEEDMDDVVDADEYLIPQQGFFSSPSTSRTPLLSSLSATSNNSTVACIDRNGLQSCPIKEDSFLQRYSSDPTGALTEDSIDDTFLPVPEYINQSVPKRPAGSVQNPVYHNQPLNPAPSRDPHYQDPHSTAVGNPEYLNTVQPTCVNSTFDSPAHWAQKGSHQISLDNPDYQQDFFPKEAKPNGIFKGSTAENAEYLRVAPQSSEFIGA
EGFR L858R/T790M, sequence (P00533 25-1210 T790M/L858R): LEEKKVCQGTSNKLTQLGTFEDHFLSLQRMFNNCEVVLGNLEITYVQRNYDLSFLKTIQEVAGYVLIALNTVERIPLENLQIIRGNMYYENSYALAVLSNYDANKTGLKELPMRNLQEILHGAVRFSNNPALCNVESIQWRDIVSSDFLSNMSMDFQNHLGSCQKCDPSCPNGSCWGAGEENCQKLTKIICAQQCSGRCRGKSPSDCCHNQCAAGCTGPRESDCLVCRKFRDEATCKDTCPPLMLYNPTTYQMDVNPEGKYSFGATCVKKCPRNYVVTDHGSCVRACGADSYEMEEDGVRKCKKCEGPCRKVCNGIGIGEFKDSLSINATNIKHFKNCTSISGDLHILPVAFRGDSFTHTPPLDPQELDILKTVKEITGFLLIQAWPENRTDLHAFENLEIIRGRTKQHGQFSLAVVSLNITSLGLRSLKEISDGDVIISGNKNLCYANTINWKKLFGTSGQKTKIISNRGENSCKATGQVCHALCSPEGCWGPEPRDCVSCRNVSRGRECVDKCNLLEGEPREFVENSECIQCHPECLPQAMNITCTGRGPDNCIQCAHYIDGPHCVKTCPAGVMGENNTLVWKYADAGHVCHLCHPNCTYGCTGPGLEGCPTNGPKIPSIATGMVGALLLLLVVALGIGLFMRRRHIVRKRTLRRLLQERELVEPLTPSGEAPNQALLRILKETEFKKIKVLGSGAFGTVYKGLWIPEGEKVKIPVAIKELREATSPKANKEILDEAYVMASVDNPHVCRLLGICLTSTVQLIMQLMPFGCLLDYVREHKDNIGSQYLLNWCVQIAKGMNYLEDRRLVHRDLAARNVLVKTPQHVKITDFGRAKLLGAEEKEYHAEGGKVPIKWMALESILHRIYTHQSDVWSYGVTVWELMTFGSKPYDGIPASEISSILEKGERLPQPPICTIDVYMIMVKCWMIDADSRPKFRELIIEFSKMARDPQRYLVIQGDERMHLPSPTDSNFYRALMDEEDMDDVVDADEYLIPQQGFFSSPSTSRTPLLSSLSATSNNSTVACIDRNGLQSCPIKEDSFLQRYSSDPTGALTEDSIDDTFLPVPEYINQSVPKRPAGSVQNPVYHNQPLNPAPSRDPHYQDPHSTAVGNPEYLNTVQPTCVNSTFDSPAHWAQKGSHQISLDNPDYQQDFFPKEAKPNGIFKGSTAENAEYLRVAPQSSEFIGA
human EGFR (native sequence), sequence (P00533 25-1210): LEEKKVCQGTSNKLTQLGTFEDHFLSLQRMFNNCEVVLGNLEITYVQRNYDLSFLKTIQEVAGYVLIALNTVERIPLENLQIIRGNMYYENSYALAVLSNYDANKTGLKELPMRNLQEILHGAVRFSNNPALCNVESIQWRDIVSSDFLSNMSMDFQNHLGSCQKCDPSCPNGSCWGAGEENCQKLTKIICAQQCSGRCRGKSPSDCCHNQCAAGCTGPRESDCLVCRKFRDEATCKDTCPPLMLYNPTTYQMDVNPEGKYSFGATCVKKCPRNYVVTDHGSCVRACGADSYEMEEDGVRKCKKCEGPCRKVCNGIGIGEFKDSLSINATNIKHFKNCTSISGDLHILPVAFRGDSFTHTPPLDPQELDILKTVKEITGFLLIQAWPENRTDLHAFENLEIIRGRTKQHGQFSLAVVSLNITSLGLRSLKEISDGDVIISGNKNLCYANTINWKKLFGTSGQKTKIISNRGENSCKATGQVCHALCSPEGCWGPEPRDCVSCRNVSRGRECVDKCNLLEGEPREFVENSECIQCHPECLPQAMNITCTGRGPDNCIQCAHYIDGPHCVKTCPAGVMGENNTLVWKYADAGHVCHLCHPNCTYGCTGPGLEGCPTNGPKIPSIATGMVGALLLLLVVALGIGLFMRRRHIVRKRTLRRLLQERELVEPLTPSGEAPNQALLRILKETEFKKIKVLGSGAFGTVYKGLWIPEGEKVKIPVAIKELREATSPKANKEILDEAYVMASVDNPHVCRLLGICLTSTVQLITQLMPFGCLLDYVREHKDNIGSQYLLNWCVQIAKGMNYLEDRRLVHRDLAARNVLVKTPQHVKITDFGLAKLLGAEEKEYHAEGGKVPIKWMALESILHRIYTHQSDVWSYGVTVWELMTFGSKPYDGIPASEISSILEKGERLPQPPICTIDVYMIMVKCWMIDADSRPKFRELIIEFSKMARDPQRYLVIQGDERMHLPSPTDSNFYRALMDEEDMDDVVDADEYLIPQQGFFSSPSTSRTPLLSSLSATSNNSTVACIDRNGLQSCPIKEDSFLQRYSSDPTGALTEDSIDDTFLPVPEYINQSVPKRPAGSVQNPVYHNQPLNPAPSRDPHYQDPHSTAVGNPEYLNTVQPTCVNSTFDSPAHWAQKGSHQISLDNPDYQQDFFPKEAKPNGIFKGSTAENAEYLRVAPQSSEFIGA
T1 sequence (P00533 with tags, fused parts or gaps DEL746-750/T790M, form open): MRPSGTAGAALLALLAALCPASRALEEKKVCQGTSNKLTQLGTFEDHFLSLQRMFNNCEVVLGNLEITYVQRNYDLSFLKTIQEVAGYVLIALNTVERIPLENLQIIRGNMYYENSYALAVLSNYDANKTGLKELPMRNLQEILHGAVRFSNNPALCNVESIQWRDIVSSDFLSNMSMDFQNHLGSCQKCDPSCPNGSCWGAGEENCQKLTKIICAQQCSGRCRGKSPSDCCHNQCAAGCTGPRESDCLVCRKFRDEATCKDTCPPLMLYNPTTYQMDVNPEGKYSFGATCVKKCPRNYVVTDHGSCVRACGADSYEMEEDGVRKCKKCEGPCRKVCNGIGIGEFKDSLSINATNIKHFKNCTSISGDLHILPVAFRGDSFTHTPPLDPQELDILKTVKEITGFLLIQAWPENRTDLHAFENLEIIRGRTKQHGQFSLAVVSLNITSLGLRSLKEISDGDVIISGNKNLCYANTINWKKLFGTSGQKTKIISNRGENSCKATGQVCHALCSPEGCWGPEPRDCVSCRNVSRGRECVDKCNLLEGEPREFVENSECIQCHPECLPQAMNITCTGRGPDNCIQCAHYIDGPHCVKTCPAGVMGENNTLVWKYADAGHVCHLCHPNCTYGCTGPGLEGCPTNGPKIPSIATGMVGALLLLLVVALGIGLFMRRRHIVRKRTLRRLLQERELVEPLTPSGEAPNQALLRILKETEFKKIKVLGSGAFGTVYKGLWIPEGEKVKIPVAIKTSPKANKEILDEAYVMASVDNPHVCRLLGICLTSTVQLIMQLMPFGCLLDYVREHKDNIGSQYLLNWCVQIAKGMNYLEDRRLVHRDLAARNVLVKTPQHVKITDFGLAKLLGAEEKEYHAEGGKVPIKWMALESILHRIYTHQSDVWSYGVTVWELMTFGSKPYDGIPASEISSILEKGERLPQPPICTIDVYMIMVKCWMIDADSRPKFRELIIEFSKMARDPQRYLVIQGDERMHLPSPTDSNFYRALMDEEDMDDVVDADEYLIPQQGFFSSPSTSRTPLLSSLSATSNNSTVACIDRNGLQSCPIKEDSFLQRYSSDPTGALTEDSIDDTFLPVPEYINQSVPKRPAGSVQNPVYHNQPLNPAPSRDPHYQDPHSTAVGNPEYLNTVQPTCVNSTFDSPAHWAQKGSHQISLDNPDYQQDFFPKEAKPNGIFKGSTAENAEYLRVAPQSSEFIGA

SMILES | IC50 [1] [nM] | IC50 (EGFR L858R) [nM] | IC50 (EGFR L858R/T790M) [nM] | GI50 [2] [nM] | GI50 [3] [nM] | IC50 [4] [nM]
C=CC(=O)Nc1cc(Nc2ncc(Cl)c(Nc3ccccc3P(C)(C)=O)n2)c(OC)cc1N1CC(N2CCCC2)C1 [Example 31, N-(5-((5-chloro-4-((2-(dimethylphosphoryl)phenyl)amino)pyrimidin-2-yl)amino)-4-methoxy-2-(3-(pyrrolidin-1-yl)azetidin-1-yl)phenyl)acrylamide] | < 50 | < 50 | < 50 | < 50 | < 50 | ≥ 250
C=CC(=O)Nc1cc(Nc2ncc(Cl)c(Nc3ccccc3P(C)(C)=O)n2)c(OC)cc1N1CCC(O)C1 (stereo not drawn) [Example 32, N-(5-((5-chloro-4-((2-(dimethylphosphoryl)phenyl)amino)pyrimidin-2-yl)amino)-2-(3-hydroxypyrrolidin-1-yl)-4-methoxyphenyl)acrylamide] | < 50 | < 50 | < 50 | 50 to 100 | 101 to 250 | ≥ 250
C=CC(=O)Nc1cc(Nc2ncc(Cl)c(Nc3ccccc3P(C)(C)=O)n2)c(OC)cc1N1CCC(N2CCCCC2)C1 (stereo not drawn) [Example 33, N-(5-((5-chloro-4-((2-(dimethylphosphoryl)phenyl)amino)pyrimidin-2-yl)amino)-4-methoxy-2-(3-(piperidin-1-yl)pyrrolidin-1-yl)phenyl)acrylamide] | < 50 | < 50 | < 50 | < 50 | < 50 | ≥ 250
C=CC(=O)Nc1cc(Nc2ncc(Cl)c(Nc3ccccc3P(C)(C)=O)n2)c(OC)cc1N1CCC(N(CC)CC)C1 (stereo not drawn) [Example 34, N-(5-((5-chloro-4-((2-(dimethylphosphoryl)phenyl)amino)pyrimidin-2-yl)amino)-2-(3-(diethylamino)pyrrolidin-1-yl)-4-methoxyphenyl)acrylamide] | < 50 | < 50 | < 50 | < 50 | < 50 | ≥ 250
C=CC(=O)Nc1cc(Nc2ncc(Cl)c(Nc3ccccc3P(C)(C)=O)n2)c(OC)cc1N1CCC(N2CCC(O)C2)C1 (stereo not drawn) [Example 35, N-(5-((5-chloro-4-((2-(dimethylphosphoryl)phenyl)amino)pyrimidin-2-yl)amino)-2-(3-hydroxy-[1,3′-bipyrrolidin]-1′-yl)-4-methoxyphenyl)acrylamide] | < 50 | < 50 | < 50 | 101 to 250 | ≥ 250 | ≥ 250
C=CC(=O)Nc1cc(Nc2ncc(Cl)c(Nc3ccccc3P(C)(C)=O)n2)c(OC)cc1N1CCC(N2CCCC2)C1 (stereo not drawn) [Example 36, N-(2-([1,3′-bipyrrolidin]-1′-yl)-5-((5-chloro-4-((2-(dimethylphosphoryl)phenyl)amino)pyrimidin-2-yl)amino)-4-methoxyphenyl)acrylamide] | < 50 | < 50 | < 50 | < 50 | < 50 | ≥ 250
C=CC(=O)Nc1cc(Nc2ncc(Cl)c(Nc3ccccc3P(C)(C)=O)n2)c(OC)cc1N1CCC(N2CCN(C)CC2)C1 (stereo not drawn) [Example 37, N-(5-((5-chloro-4-((2-(dimethylphosphoryl)phenyl)amino)pyrimidin-2-yl)amino)-4-methoxy-2-(3-(4-methylpiperazin-1-yl)pyrrolidin-1-yl)phenyl)acrylamide] | < 50 | < 50 | < 50 | 50 to 100 | 101 to 250 | ≥ 250
C=CC(=O)Nc1cc(Nc2ncc(Cl)c(Nc3ccccc3P(C)(C)=O)n2)c(OC)cc1N1CCC(N(C)CCN(CC)CC)C1 (stereo not drawn) [Example 38, N-(5-((5-chloro-4-((2-(dimethylphosphoryl)phenyl)amino)pyrimidin-2-yl)amino)-2-(3-((2-(diethylamino)ethyl)(methyl)amino)pyrrolidin-1-yl)-4-methoxyphenyl)acrylamide] | < 50 | < 50 | < 50 | < 50 | 101 to 250 | ≥ 250
